Measurements taken from patent publication US20250295717A1, “RE[…] OF R[…] VIRUS, COMBINATION, AND APPLICATION THEREOF” (NEUREGEN BIOTHERAPEUTICS (SHANGHAI) CO. LTD, priority 2022, published 2025).

Key:
[1] = test system: glioma cells (U87-luc) implanted into the brain; assay: Brain orthotopic glioma model U87-luc (Example 6); assay type: in vivo, mouse; conditions: Ad5-AN 1×10^9 PFU every four days, three doses, TMZ 15 mg/kg, PBS group 22.3 days
Procedure: For the orthotopic glioma model, 7-week-old NOD-scid mice were used. Human glioma cells, either induced with […] or not induced, were centrifuged to remove the supernatant, resulting in a cell density of approximately 2.5×10^5 cells/μL. A total of 2 μL (5×10^5 cells) was implanted into the striatum of each mouse. After three weeks, histological analysis or viral injection was performed, followed by immunohistochemical detection.
In this example, glioma cells (U87-luc) were first implanted into the brain (5×10^5 cells). After 7 days of implantation, the mice were grouped for treatment, with the PBS group serving as the control. The Ad5-AN group received a dose of 1×10^9 PFU, while the temozolomide (TMZ) gavage group received 15 mg/kg once daily for five days, followed by two days off. Additionally, there was a combination treatment group of Ad5-AN and temozolomide, with Ad5-AN administered every four days for a total of three doses.

human glioma tissue PDX = assay: Patient-derived tumor xenograft (PDX) model from human glioma tissue (Example 7); assay type: in vivo, mouse
Procedure: To further validate the combined effect of oncolytic viruses and redifferentiation therapy, this implementation was tested in a patient-derived tumor xenograft (PDX) model constructed from human glioma tissue. PDX tissues were inoculated into the armpits of nude mice for passaging, and when they reached the logarithmic growth phase, they were re-inoculated into the armpits of nude mice. When the tumor grew to approximately 100 mm^3, appropriate tumor-bearing mice were randomly grouped. After grouping, treatment commenced, with the PBS group serving as the control. The Ad5-AN group received a dose of 1×10^9 PFU, while the temozolomide (TMZ) gavage group received 15 mg/kg once daily for five days, followed by two days off. Additionally, there was a combination treatment group of Ad5-AN and temozolomide, with Ad5-AN administered every two days for a total of five doses. Tumor volume was measured every three days, and later, the animals were euthanized to weigh the tumors and perform biochemical and molecular analyses.

[2] = test system: human glioblastoma U87 ectopic implantation; assay: Human glioblastoma U87 BALB/CA-nu mouse ectopic implantation model, recombinant HSV (Example 8); assay type: in vivo
Procedure: (§1) For the subcutaneous glioma model, human U87 glioma cells were cultured, and during the logarithmic growth phase, they were inoculated into the axillae of nude mice. After two passages, the tumor tissue was collected under sterile conditions, and the tumor mass was cut into uniform small pieces approximately the size of grains of rice, which were then inoculated subcutaneously in the axillae of nude mice using an implantation needle. Once the tumor grew to approximately 100 mm^3, the mice were randomly grouped, and the treatment began. All samples were dissolved in PBS, with an injection volume of 50 μL/tumor. The length and width of the tumor were measured every three days, and the tumor volume was calculated using the formula: […]
In this implementation, type 1 herpes simplex virus (HSV) was used as an oncolytic virus vector, with fragments from human Ascl1 (SEQ ID No. 11) and the coding sequence (CDS) of human Ngn2 (SEQ ID No. 15) inserted to achieve efficient co-expression of Ascl1 and Ngn2. After packaging and purifying the recombinant HSV, tests were conducted using a human glioblastoma U87 BALB/CA-nu mouse ectopic implantation model. […] Tumor volume was measured every three days, and later, the animals were euthanized to weigh the tumors and perform biochemical and molecular analyses. […]

[3] = test system: human glioma U87 cells subcutaneous implantation; assay: Subcutaneous U87 glioma model, combination with temozolomide (Example 5); assay type: in vivo, mouse
Procedure: as §1
In this example, a subcutaneous implantation model using human glioma U87 cells in BALB/c nu/nu mice was adopted. U87 human glioblastoma cells were inoculated into the armpits of the nude mice during the logarithmic growth phase. When the tumor grew to approximately 100 mm^3, appropriate tumor-bearing mice were randomly grouped. After grouping, treatment commenced, with the PBS group serving as the control. The Ad5-AN group received a dose of 1×10^9 PFU, while the temozolomide (TMZ) gavage group received 15 mg/kg once daily for five days, followed by two days off. Additionally, there was a combination treatment group of Ad5-AN and temozolomide (Ad5-AN+TMZ), with Ad5-AN administered every two days for a total of five doses. Tumor volume was measured every three days, and later, the animals were euthanized to weigh the tumors and perform biochemical and molecular analyses.

[4] = U87 subcutaneous, extended experiment

Cn1nnc2c(C(N)=O)ncn2c1=O [temozolomide]
average survival [1]: 56.8 days | time at which tumors gradually relapsed post-treatment (human glioma tissue PDX): around 45 days | time at which tumors reached nearly 2000 mm^3 (human glioma tissue PDX): around 72 days | tumors relapsed and began to regrow (human glioma tissue PDX; around 45 days post-treatment): 6/6 | tumor volume decrease ([2]; after 10 days of treatment, HSV 2×10^6 PFU every two days, five doses, TMZ 15 mg/kg): 73.6% | tumor recurrence ([2]; after two months): 6/6 | time at which tumor growth approached 2000 mm^3 [3, 4]: around 60 days | time at which tumors gradually relapsed post-treatment [3, 4]: around 35 days | tumor recurrence after 56 days ([3]; mice with recurrence / seven mice, FIG. 5): 7/7
